≈ marks a conversion by molar mass, not a printed value.
Columns and labels:
Debaryomyces sp. = assay: mini screen with known water-soluble antifungals (MIC, dose-response); assay type: cell-based
[1] = tested on: mucosal wounds in the distal colon of mice; assay: colonic biopsy injury model, mucosal wound repair in VNAM-treated mice; assay type: in vivo; details: day 12 post-injury
Text: To test the role of microbes in mucosal wound repair, a biopsy injury model was used where the timing and site of injuries are known in each experiment. Wound repair in this model occurs in distinct phases. Barrier re-establishment begins immediately upon injury and lasts for 4 days, and is characterized by the formation of wound associated epithelial (WAE) cells that cover the denuded mucosa. Wound channel formation phase (day 4-day 8), involves extensive proliferation of epithelial cells in crypts adjacent to the wound, forming channels that emanate towards the center of the wound. These two phases culminate in the formation of new crypts that is complete within 12 days post-injury.
C57BL6 WT were purchased from Jackson Laboratories (Bar Harbor, ME) or Taconic Biosciences and acclimatized in a specific pathogen-free facility for 1 week before conducting any experiment. […]
(§1) For hematoxylin and eosin (H&E) staining, wounds were collected and embedded in optimum cutting temperature (OCT) formulation (Thermo Fisher Scientific), and 5 μm frozen sections were obtained using a cryostat. […] Images were analyzed using Olympus CellSens Standard imaging software to measure the wound bed length defined as the distance between the two farthest crypts in the center of the wound bed. 2-3 wounds per mouse were analyzed and wound bed lengths were averaged to obtain one value per mouse. […]

PGE2 = assay: wound PGE2 levels in VNAM administered, biopsy injured mice; assay type: in vivo; details: day 6 post-injury, NS-398 vs vehicle, p<0.01
Experimental: Antibiotic-treated (VNAM) mice received the following cocktail for 4 weeks prior to biopsy injury until the day of sacrifice in drinking water: 0.5 g/L Vancomycin, 1 g/L Neomycin, 1 g/L Ampicillin, 1 g/L Metronidazole, and 1 g/L Kool-aid. Control mice received Kool-aid alone. Mice were treated with VNAM in the following figures: FIG. 8A-F, FIG. 9A-E, FIG. 12A-D, FIG. 13, FIG. 14, and FIG. 19A. […]

fungi = fungi in colonic wounds of biopsy-injured mice (ITS qPCR, anti-fungal antibody staining, ITS sequencing, SDA culture); assay type: in vivo; details: VNAM-treated mice; amphotericin B orally once daily from 3 days before injury to day 6 post-injury
Experimental: Quantitative PCR was performed on the mice of Ex. 4 to identify fungal microbiota within the intestinal wounds. About three fecal pellets or 10-50 mg samples of intestinal tissue were resuspended in Tris buffer supplemented with 1000 U/ml of lyticase (Sigma), 1 mM EDTA, and 0.2% β-mercaptoethanol (Sigma). DNA was extracted using either the DNeasy PowerLyzer PowerSoil kit (Qiagen) or DNA mini stool extraction kit (Qiagen) according to manufacturer's instructions.
Quantitative PCR was performed using SYBR Green (Roche) or SYBR Green Jumpstart Taq Ready mix (Sigma) on an Eppendorf Mastercycler (Eppendorf) using the following primers as described previously (23, 42, 52)—Saccharomyces cerevisiae: forward (5′-[…]-3′, SEQ ID NO:3), reverse (5′-[…]-3′, SEQ ID NO:4), Candida tropicalis: forward (5′-[…]-3′, SEQ ID NO:5), reverse (5′-[…]-3′, SEQ ID NO:6), Debaryomyces hansenii: forward (5′-[…]—3′, SEQ ID NO:7), reverse (5′-[…]-3′, SEQ ID NO:8) and ITS1-2: forward (5′-[…]-3′, SEQ ID NO:9), reverse (5′-[…]-3′, SEQ ID NO:10). The following conditions were used: 94° C. for 10 minutes, followed by 40 cycles of 94° C. for 30 seconds, 55° C. for 30 seconds, and 72° C. for 2 minutes, ending with 72° C. for 30 minutes. […]

[2] = tested on: mucosal wounds in the distal colon of mice; assay: biopsy injury model in WT mice without VNAM or D. hansenii gavage; assay type: in vivo; details: amphotericin B in the absence of D. hansenii gavage and VNAM; day 12 post-injury
Text: C57BL6 WT were purchased from Jackson Laboratories (Bar Harbor, ME) or Taconic Biosciences and acclimatized in a specific pathogen-free facility for 1 week before conducting any experiment. Biopsy forceps and a miniaturized colonoscope system (Karl Storz) were used to create mucosal wounds in the distal colon of mice as described previously. Briefly, mice were anesthetized using ketamine/xylazine and stool pellets were removed from the colon by flushing with PBS. Next, 3 French biopsy forceps were inserted into the colon and 3-5 thickness areas of mucosa and submucosa were removed under the guidance of an endoscopy camera. Biopsy injured mice were euthanized, and wounds were collected on days 4, 6, 8, and 12 to evaluate healing. Biopsy injury was performed by investigators blinded to the treatments.
as §1

D. hansenii = assay: biopsy injury model in WT mice gavaged with D. hansenii CDA1 (human clinical isolate); assay type: in vivo; details: WT mice gavaged with D. hansenii CDA1 with or without amphotericin B; day 12 post-injury
Experimental: For inoculation experiments, yeasts were expanded in Sabouraud dextrose agar (SDA) for 2-4 days at 30° C. prior to gavage. Mice were gavaged with pure culture of D. hansenii (obtained from the wounds of antibiotic-treated mice or inflamed tissues of Crohn's disease) or Saccharomyces cerevisiae (ATCC) at ˜10^6 CFU/mouse, unless otherwise stated, in 150 μl of PBS. Controls received PBS only. For all inoculation experiments, gavage occurred 2 days before injury, on the day of injury, and 2, 4, and 6 days post-injury unless otherwise stated.
To ascertain whether human clinical isolates of D. hansenii were capable of inducing repair defects, the following experiments were conducted. WT mice were gavaged with D. hansenii CDA1 (Table 3) using methods similar to those described above. The CDA isolate was associated with impaired crypt regeneration in the biopsy injury model, and this effect was reversed by amphotericin B treatment (FIG. 11G, I).

CC[C@H](C)C[C@H](C)CCCCCCCCC(=O)N[C@H]1C[C@@H](O)[C@@H](NCCN)NC(=O)[C@@H]2[C@@H](O)CCN2C(=O)[C@H]([C@H](O)CCN)NC(=O)[C@H]([C@H](O)[C@@H](O)c2ccc(O)cc2)NC(=O)[C@@H]2C[C@@H](O)CN2C(=O)[C@H]([C@@H](C)O)NC1=O [caspofungin]
MIC (Debaryomyces sp.; Debaryomyces): 0.62 µg/mL (≈ 0.567 µM) | effectiveness compared to azoles in the antifungal screen (Debaryomyces sp.; against Debaryomyces sp., water-soluble antifungals): most effective at lowest concentrations

CS(=O)(=O)Nc1ccc([N+](=O)[O-])cc1OC1CCCCC1 [NS-398]
wound bed length, NS-398 vs vehicle ([1]; VNAM pre-treated mice, NS-398 2.5 mg/kg i.p. twice daily days 4-10): not significant | wound PGE2 levels (PGE2): ablation of PGE2

C[C@@H]1[C@H](O)[C@@H](C)/C=C/C=C/C=C/C=C/C=C/C=C/C=C/[C@H](O[C@@H]2O[C@H](C)[C@@H](O)[C@H](N)[C@@H]2O)C[C@@H]2O[C@](O)(C[C@@H](O)C[C@@H](O)[C@H](O)CC[C@@H](O)C[C@@H](O)CC(=O)O[C@H]1C)C[C@H](O)[C@H]2C(=O)O [amphotericin B]
fungal antigen detection in the wounds (fungi): reduced fungal antigen detection | crypt regeneration (wound bed length) ([1]; VNAM-treated mice, amphotericin B orally): reversed the crypt regeneration defects | repair of WT mice (wound bed length) [2]: did not demonstrate any obvious defects in repair | impaired crypt regeneration caused by D. hansenii CDA1 (wound bed length) (D. hansenii): reversed

— US12582696B2, “Debaryomyces species as an indicator of non-healing ulcers in Crohn's disease” (Washington University, priority 2019, dated 2026)
